# Measurements: patent US20260159528A1, “HETEROCYCLIC COMPOUNDS AS TRIGGERING RECEPTOR EXPRESSED ON MYELOID CELLS 2 AGONISTS AND METHODS OF USE” (Vigil Neuroscience, Inc., priority 2021, published 2026)
# Target: T1, human TREM2 (Homo sapiens, UniProt Q9NZC2)
# T1 construct: expressed in transfected cells; host or cells: HEK293T
# Experiment: TREM2 agonist potency by cellular Syk phosphorylation (AlphaLisa) in HEK293T-hTREM2 cells
# Format: cell-based
# Conditions: Table D-2; HEK293 cells expressing human TREM2 and DAP12; pSyk AlphaLisa
# Description: In vitro Measurement of Triggering Receptor Expressed on Myeloid Cells 2 activity using cellular phosphorylation of Spleen Tyrosine Kinase (“Syk”) Assays
# Measurement of TREM2 agonist potency was done using a HEK cell line expressing human TREM2 and DAP12 (HEK293T-hTREM2 cells). Binding of small molecules to, and activation of, TREM2 increases the phosphorylation of Syk. The resultant levels of Syk phosphorylation are measured using a commercial AlphaLisa reagent kit. To perform the assay, HEK-hTREM2 cells were plated at 14,000 cells per well in a 384 well plate, in 25 µL of complete growth media and incubated at 37° C., 5% CO2 for 20-24 hours.
# Prior to the assay, test compounds were diluted in the 384 well plates in assay buffer and allowed to equilibrate for 30 minutes. Growth media was removed from cell plates by inversion on blotting paper, and 25 μL of test articles in assay buffer was added to cells. Cells were incubated for 45 minutes at room temperature. After 45 minutes, assay buffer was removed and 10 μL of lysis buffer was added. Plates were shaken for 20 minutes at 350 RPM at room temperature. After complete lysis, AlphaLisa reagents were added to the lysate, and fluorescence intensity was measured using a Perkin Elmer Envision plate reader. Intensities were used to generate a standard curve, and % activation was calculated. Curve fitting was performed using Prism v9 software, log(agonist) vs response—variable slope (four parameters), and EC50s were calculated from the curve fit.
# The results presented in Table D have been generated with the in vitro assay described above. This assay may be used to test any of the compounds described herein to assess and characterize a compound's ability to act as an agonist of TREM2.
# T1 sequence (Q9NZC2 19-230): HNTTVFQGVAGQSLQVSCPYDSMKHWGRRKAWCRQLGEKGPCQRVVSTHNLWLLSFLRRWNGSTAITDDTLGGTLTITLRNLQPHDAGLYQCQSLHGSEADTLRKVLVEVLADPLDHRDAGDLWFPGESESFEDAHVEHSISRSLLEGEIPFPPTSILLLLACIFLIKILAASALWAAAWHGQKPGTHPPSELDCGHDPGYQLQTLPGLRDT
# T1 sequence (O43914 22-113 partner): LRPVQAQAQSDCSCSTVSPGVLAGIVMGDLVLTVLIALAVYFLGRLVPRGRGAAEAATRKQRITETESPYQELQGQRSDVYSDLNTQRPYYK
row,EC50 [µM],SMILES
1,0.5 to 3,"CN(C)c1nc2nc([C@@H]3CCO[C@@H](c4cnn(C5CC5)c4)C3)nc(-c3ccc(C(F)(F)F)cc3F)c2s1 (single isomer, unassigned) [Compound I-135]"
2,0.05 to 0.5,"CN(C)c1nc2nc(N3CCC(F)(F)[C@H](c4cnn(C5CC5)c4)C3)nc(-c3ccc(C(F)(F)F)cc3F)c2s1 (single isomer, unassigned) [Compound I-200]"
3,0.05 to 0.5,"Fc1cc(C(F)(F)F)ccc1-c1nc([C@@H]2CCO[C@@H](c3cnn(C4CC4)c3)C2)nc2nc(N3CCC3)sc12 (single isomer, unassigned) [Compound I-248]"
4,≤ 0.05,"Fc1cc(C(F)(F)F)ccc1-c1nc([C@H]2CCO[C@@H](c3cnn(C4CC4)c3)C2)nc2nc(N3CCC3)sc12 (single isomer, unassigned) [Compound I-249]"
5,0.5 to 3,"Fc1cc(C(F)(F)F)ccc1-c1nc([C@@H]2CCO[C@@H](c3cnn(C4CC4)c3)C2)nc2nc(C3CC3)sc12 (single isomer, unassigned) [Compound I-278]"
6,≤ 0.05,"Fc1cc(C(F)(F)F)ccc1-c1nc([C@H]2CCO[C@@H](c3cnn(C4CC4)c3)C2)nc2nc(C3CC3)sc12 (single isomer, unassigned) [Compound I-279]"
7,0.5 to 3,"Cc1nc2nc([C@@H]3CCO[C@@H](c4cnn(C5CC5)c4)C3)nc(-c3ccc(F)cc3F)c2s1 [Compound I-14, 5-[(2R,4R)-2-(1-cyclopropylpyrazol-4-yl)tetrahydropyran-4-yl]-7-(2,4-difluorophenyl)-2-methyl-thiazolo[4,5-d]pyrimidine]"
8,0.05 to 0.5,"CO[C@@H]1CCN(c2nc3nc([C@H]4CCO[C@@H](c5cnn(C6CC6)c5)C4)nc(-c4ccc(C(F)(F)F)cc4F)c3s2)C1 [Compound I-164, 5-((2R,4S)-2-(1-cyclopropyl-1H-pyrazol-4-yl)tetrahydro-2H-pyran-4-yl)-7-(2-fluoro-4-(trifluoromethyl)phenyl)-2-((R)-3-methoxypyrrolidin-1-yl)thiazolo[4,5-d]pyrimidine]"
9,0.05 to 0.5,"CO[C@H]1CCN(c2nc3nc([C@H]4CCO[C@@H](c5cnn(C6CC6)c5)C4)nc(-c4ccc(C(F)(F)F)cc4F)c3s2)C1 [Compound I-165, 5-[(2R)-2-(1-cyclopropylpyrazol-4-yl)tetrahydropyran-4-yl]-7-[2-fluoro-4-(trifluoromethyl)phenyl]-2-[(3S)-3-methoxypyrrolidin-1-yl]thiazolo[4,5-d]pyrimidine]"
10,≤ 0.05,"CO[C@@H]1CCN(c2nc3nc(N4C[C@@H](C)O[C@@H](c5cnn(C6CC6)c5)C4)nc(-c4ccc(F)cc4F)c3s2)C1 [Compound I-221, (2S,6R)-2-(1-cyclopropyl-1H-pyrazol-4-yl)-4-(7-(2,4-difluorophenyl)-2-((R)-3-methoxypyrrolidin-1-yl)thiazolo[4,5-d]pyrimidin-5-yl)-6-methylmorpholine]"
11,≤ 0.05,"CO[C@H]1CCN(c2nc3nc(N4C[C@@H](C)O[C@@H](c5cnn(C6CC6)c5)C4)nc(-c4ccc(F)cc4F)c3s2)C1 [Compound I-224, (2S,6R)-2-(1-cyclopropylpyrazol-4-yl)-4-[7-(2,4-difluorophenyl)-2-[(3S)-3-methoxypyrrolidin-1-yl]thiazolo[4,5-d]pyrimidin-5-yl]-6-methyl-morpholine]"

# The next lines start with the compound.
row,SMILES,EC50 [µM]
1,"CN(C)c1nc2nc([C@H]3CCO[C@@H](c4cnn(C5CC5)c4)C3)nc(C3CCCCC3)c2s1 (single isomer, unassigned) [Compound I-174]",0.5 to 3
2,"CN(C)c1nc2nc(N3CCC(F)(F)[C@@H](c4cnn(C5CC5)c4)C3)nc(-c3ccc(C(F)(F)F)cc3F)c2s1 (single isomer, unassigned) [Compound I-199]",0.05 to 0.5
3,"Cc1cc([C@H]2CN(c3nc(-c4ccc(C(F)(F)F)cc4F)c4sc(N(C)C)nc4n3)CCC2(F)F)ccn1 (single isomer, unassigned) [Compound I-202]",0.05 to 0.5
4,"CN(C)c1nc2nc([C@@H]3CCO[C@@H](c4cnn(C5CC5)c4)C3)nc(C3CCCCC3)c2s1 (single isomer, unassigned) [Compound I-205]",0.5 to 3
5,"C[C@@H]1CN(c2nc(-c3ccc(Cl)cc3F)c3sc(N(C)CC4CC4)nc3n2)C[C@H](c2cnn(C3CC3)c2)O1 [Compound I-109, 7-(4-chloro-2-fluoro-phenyl)-N-(cyclopropylmethyl)-N-methyl-5-[(2S,6R)-2-(1-cyclopropylpyrazol-4-yl)-6-methyl-morpholin-4-yl]thiazolo[4,5-d]pyrimidin-2-amine]",0.05 to 0.5
6,"C[C@@H]1CN(c2nc(-c3ccc(F)cc3F)c3c(ncn3C)n2)C[C@H](c2cnn(C3CC3)c2)O1 [Compound I-124, (2S,6R)-2-(1-cyclopropyl-1H-pyrazol-4-yl)-4-(6-(2,4-difluorophenyl)-7-methyl-7H-purin-2-yl)-6-methylmorpholine]",0.5 to 3
7,"CC(C)n1cc2c(-c3ccc(F)cc3F)nc(N3C[C@@H](C)O[C@@H](c4cnn(C5CC5)c4)C3)nc2n1 [Compound I-129, (2S,6R)-2-(1-cyclopropyl-1H-pyrazol-4-yl)-4-(4-(2,4-difluorophenyl)-2-isopropyl-2H-pyrazolo[3,4-d]pyrimidin-6-yl)-6-methylmorpholine]",0.05 to 0.5
8,CC(C)n1ncc2c(-c3ccc(F)cc3F)nc(N3C[C@@H](C)O[C@@H](c4cnn(C5CC5)c4)C3)nc21 [Compound I-139],0.5 to 3
9,C[C@@H]1CN(c2nc(-c3ccc(F)cc3F)c3c(n2)nc(N(C)C)n3C)C[C@H](c2cnn(C3CC3)c2)O1 [Compound I-144],≤ 0.05
10,"COCn1cc([C@H]2CN(c3nc(-c4ccc(C(F)(F)F)cc4F)c4sc(N(C)C)nc4n3)C[C@@H](C)O2)cn1 [Compound I-149, 7-[2-fluoro-4-(trifluoromethyl)phenyl]-5-[(2S,6R)-2-[1-(methoxymethyl)pyrazol-4-yl]-6-methyl-morpholin-4-yl]-N,N-dimethyl-thiazolo[4,5-d]pyrimidin-2-amine]",0.05 to 0.5
11,"CCn1/c(=N\C)sc2c(-c3ccc(Cl)cc3F)nc(N3C[C@@H](C)O[C@@H](c4cnn(C5CC5)c4)C3)nc21 [Compound I-154, (E)-7-(4-chloro-2-fluoro-phenyl)-3-ethyl-N-methyl-5-[(2S,6R)-2-(1-cyclopropylpyrazol-4-yl)-6-methyl-morpholin-4-yl]thiazolo[4,5-d]pyrimidin-2-imine]",0.5 to 3
12,"C/N=c1/sc2c(-c3ccc(Cl)cc3F)nc(N3C[C@@H](C)O[C@@H](c4cnn(C5CC5)c4)C3)nc2n1CCF [Compound I-159, (E)-7-(4-chloro-2-fluoro-phenyl)-3-(2-fluoroethyl)-N-methyl-5-[(2S,6R)-2-(1-cyclopropylpyrazol-4-yl)-6-methyl-morpholin-4-yl]thiazolo[4,5-d]pyrimidin-2-imine]",0.5 to 3
13,"C[C@@H]1CN(c2nc(-c3ccc(F)cc3F)c3c(n2)nc(N2CCC2)n3C)C[C@H](c2cnn(C3CC3)c2)O1 [Compound I-191, (2S,6R)-4-(8-(azetidin-1-yl)-6-(2,4-difluorophenyl)-7-methyl-7H-purin-2-yl)-2-(1-cyclopropyl-1H-pyrazol-4-yl)-6-methylmorpholine]",0.05 to 0.5
14,"CN(C)c1nc2nc(C3CCO[C@@H](c4cnn(C5CC5)c4)C3)nc(Oc3ccccc3)c2s1 (stereo partly drawn) [Compound I-210, 5-[(2R)-2-(1-cyclopropylpyrazol-4-yl)tetrahydropyran-4-yl]-N,N-dimethyl-7-phenoxy-thiazolo[4,5-d]pyrimidin-2-amine]",0.5 to 3
15,"COCn1cc([C@H]2CN(c3nc(-c4ccc(F)cc4F)c4sc(N(C)C)nc4n3)C[C@@H](C)O2)cn1 [Compound I-230, 7-(2,4-difluorophenyl)-5-[(2S,6R)-2-[1-(methoxymethyl)pyrazol-4-yl]-6-methyl-morpholin-4-yl]-N,N-dimethyl-thiazolo[4,5-d]pyrimidin-2-amine]",≤ 0.05
16,"C[C@@H]1CN(c2nc(-c3ccc(F)cc3F)c3sc(N(C)C)nc3n2)C[C@H](c2cnn(C(F)F)c2)O1 [Compound I-235, 5-((2S,6R)-2-(1-(difluoromethyl)-1H-pyrazol-4-yl)-6-methylmorpholino)-7-(2,4-difluorophenyl)-N,N-dimethylthiazolo[4,5-d]pyrimidin-2-amine]",≤ 0.05

# Same assay, conditions: Table D; HEK293 cells expressing human TREM2 and DAP12; pSyk AlphaLisa
row,EC50 [µM],SMILES
1,0.05 to 0.5,"Cc1nc2nc([C@H]3CCO[C@@H](c4cnn(C5CC5)c4)C3)nc(-c3ccc(F)cc3F)c2s1 [Compound 4, 5-((2R,4S)-2-(1-cyclopropyl-1H-pyrazol-4-yl)tetrahydro-2H-pyran-4-yl)-7-(2,4-difluorophenyl)-2-methylthiazolo[4,5-d]pyrimidine]"
2,0.5 to 3,"Cc1nc2nc([C@H]3CCO[C@@H](c4cnn(C5CC5)c4)C3)nc(-c3ccc(F)cc3F)c2o1 [Compound 5, 5-((2R,4S)-2-(1-cyclopropyl-1H-pyrazol-4-yl)tetrahydro-2H-pyran-4-yl)-7-(2,4-difluorophenyl)-2-methyloxazolo[4,5-d]pyrimidine]"
3,3 to 100,"Cc1cn2c(-c3ccc(Cl)cc3F)cc(N3CCOC(c4cnn(C5CC5)c4)C3)nc2n1 (stereo not drawn) [Compound I-26, 4-[5-(4-chloro-2-fluoro-phenyl)-2-methyl-imidazo[1,2-a]pyrimidin-7-yl]-2-(1-cyclopropylpyrazol-4-yl)morpholine]"
